{"source": "patent US20020054880A1", "about": "“Anti-inflammatory, tolerogenic and immunoinhibiting properties of carbohydrate binding-peptides” (priority 1992, published 2002)", "key": {"[1]": {"molecular_target": "T1, PT-biotin binding to fetuin (Bos taurus, UniProt P12763)", "T1 construct": "purchased Sigma Chemical Company (fetuin); Connaught Center for Biotechnology Research (PT)", "T1 sequence (P12763 19-359)": "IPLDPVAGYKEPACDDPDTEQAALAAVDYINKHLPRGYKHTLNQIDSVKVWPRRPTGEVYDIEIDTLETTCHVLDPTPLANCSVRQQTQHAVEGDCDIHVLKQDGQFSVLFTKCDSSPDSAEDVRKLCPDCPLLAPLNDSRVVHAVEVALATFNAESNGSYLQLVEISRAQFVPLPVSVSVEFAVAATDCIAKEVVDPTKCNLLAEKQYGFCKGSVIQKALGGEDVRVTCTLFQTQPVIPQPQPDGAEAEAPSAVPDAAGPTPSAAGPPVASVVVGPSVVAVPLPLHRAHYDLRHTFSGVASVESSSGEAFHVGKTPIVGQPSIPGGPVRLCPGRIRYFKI", "test": "PT-biotin binding to fetuin, binding inhibition assay", "set-up": "species or system Bordetella pertussis", "conditions": "peptide mg/mL: S2PL 1.2, ACS2P1 1.0, S2(14-2.3) 1.0, S2P2 1.1, S2P3 0.51, S2P4 0.98, S2P6 0.85, S3P1 3.2, S3P2 3.1, S3P3 4.5, S3P4 3.3, S3P5 0.48, S3P9a 1.7, SPYGRC 4.4, S2(WGA) 1.0, WGA (62-73) 1.0; + enhancement, − inhibition", "description": "(§1) Peptides ranging in concentration from 0.5 to 4.5 mg/ml in PBS (40 μl) were added to each well and PT-biotin (10 μl containing 10 ng in PBS) was then added to the microtiter wells. […] Horseradish peroxidase-conjugated avidin (100 μl, 1/3000 dilution in PBST to a concentration of 0.3 μg/ml) was then added to the wells, and the plates were incubated at ambient temperature for 1 hour. […] Color development was recorded at 405 nm using a Titertek Multiskan MC plate reader. […] Binding assays for each peptide were done in duplicate. Binding inhibition experiments utilizing SNA-, WGA-, and MAL-biotin were performed as described above using 10 ng of each biotinylated lectin in PBS.\n(§2) Binding assays for each inhibitor concentration were done at least in duplicate, and the average value varied less than 15%."}, "[2]": {"molecular_target": "T2, MAL-biotin binding to fetuin (Bos taurus, UniProt P12763)", "T2 construct": "purchased Sigma Chemical Company (fetuin); Boehringer Mannheim (MAL-biotin)", "T2 sequence (P12763 19-359)": "T1 sequence (P12763 19-359)", "test": "MAL-biotin binding to fetuin, binding inhibition assay", "set-up": "species or system Maackia amurensis", "conditions": "peptide mg/mL: S2PL 1.2, ACS2P1 1.0, S2(14-2.3) 1.0, S2P2 1.1, S2P3 0.51, S2P4 0.98, S2P6 0.85, S3P1 3.2, S3P2 3.1, S3P3 4.5, S3P4 3.3, S3P5 0.48, S3P9a 1.7, SPYGRC 4.4, S2(WGA) 1.0, WGA (62-73) 1.0; + enhancement, − inhibition", "description": "as §1, §2"}, "[3]": {"molecular_target": "T3, SNA-biotin binding to fetuin (Bos taurus, UniProt P12763)", "T3 sequence (P12763 19-359)": "T1 sequence (P12763 19-359)", "test": "biochemical", "description": "The solution was removed by aspiration and replaced with 100 μl of 1% BSA in PBS containing 0.05% Tween 20 (PBST). After incubation for 2-4 hours at room temperature, the microtiter wells were washed four times with 300 μl of PBST. Peptides ranging in concentration from 0.5 to 4.5 mg/ml in PBS (40 μl) were added to each well and PT-biotin (10 μl containing 10 ng in PBS) was then added to the microtiter wells. After incubating for 1 hour, the binding reaction was stopped by aspirating the solutions and the plate was washed with PBST (300 μl). Horseradish peroxidase-conjugated avidin (100 μl, 1/3000 dilution in PBST to a concentration of 0.3 μg/ml) was then added to the wells, and the plates were incubated at ambient temperature for 1 hour. After washing the wells as described above, the substrate solution [1 mM ABTS in 5 mM citrate buffer, pH 4.2, containing 0.1% hydrogen peroxide, v/v) was added and the plates were incubated for 30 minutes. Color development was recorded at 405 nm using a Titertek Multiskan MC plate reader. Maximum binding was determined in the absence of peptide, and background binding was measured in wells coated with BSA only. Binding assays for each peptide were done in duplicate. Binding inhibition experiments utilizing SNA-, WGA-, and MAL-biotin were performed as described above using 10 ng of each biotinylated lectin in PBS."}, "[4]": {"test_system": "pertussis toxin binding to Chinese Hamster ovary (CHO) cell", "test": "CHO cell neutralization of pertussis toxin (cell clumping)", "assay_type": "cell-based", "conditions": "PT 2.4 ng/ml, peptide and PT 1 hour, triplicate", "description": "Confluent monolayers of CHO cells were lifted from plastic tissue culture flasks with 0.25% trypsin and suspended at a concentration of 5×10^4 cells/ml in Ham's F12 media containing 10% fetal bovine serum (FBS). 100 μl of the cell suspension was added to 96 well tissue culture plates and were allowed to establish contact with the plastic for 24 to 48 hours. The expended media was then removed and filtered-sterilized peptide 5-fold dilutions ranging in concentration from 300 to 30 femptogram per ml (80 μl) in Ham' F12 media containing FBS were added to the CHO cells. […] The incubation mixtures were gently mixed and incubated at 37° C. for 1 hour in a CO2 incubator. The incubation mixtures were then removed and replaced with fresh media. The tissue culture plates were then incubated for 24 hours at 37° C., fixed with 100% methanol, and stained with Geimsa stain. Control experiments were done in the absence of peptide alone or in the absence of PT. All determinations were done in triplicate. […] The results reported in Table VIII show the maximum peptide concentration required to cause a 50% reduction in CHO cell clumping."}, "[5]": {"test_system": "Balb/c mice", "test": "DTH inflammatory response, mouse footpad swelling assay", "assay_type": "in vivo", "conditions": "100 μg peptide into the tail vein 5 hours after challenge with 20 μg OVA; FIG. 2", "description": "DTH inflammatory responses were measured using the mouse footpad swelling assay as described by Smith and Ziola^64. Briefly, groups of Balb/c mice (about 19-20 grams each) were immunized with 100 μg of the OVA antigen containing 20μg of the adjuvant (DDA—dimethyl-dioctadecylammonium bromide) which also induces a strong inflammatory DTH response. Seven days later, each group of mice was footpad-challenged with 20 μg of the OVA antigen (without adjuvant). The resulting inflammatory footpad swelling was measured with a Mitutoyo Engineering micrometer 24 hours after challenge.\nTo assess the effect of different peptides on the inflammatory DTH response, groups of mice received 100 μg of the following peptides- ACS2P1 (2275), SPYGRC (2283), and S3P9a. These peptides were injected as a solution into the tail vein, 5 hours after challenge. Control groups were left untreated or received 100 μL of phosphate-buffered saline (PBS)."}, "[6]": {"test_system": "Balb/c mice", "test": "Persistence of suppression of DTH response on OVA re-challenge at 2 weeks", "assay_type": "in vivo", "conditions": "mice treated as in Example 11, re-challenged at 2 weeks; FIG. 3", "from_the_text": "Identical groups of mice treated with the peptides in Example 11 above, were re-challenged with OVA antigen 2 weeks after primary immunization."}}}
{"compound": "CC(C)C[C@H](NC(=O)[C@H](CC(C)C)NC(=O)[C@@H](N)CCCNC(=N)N)C(=O)N[C@@H](C)C(=O)N[C@@H](CO)C(=O)N[C@H](C(=O)N[C@@H](CC(N)=O)C(=O)N[C@@H](CO)C(=O)N[C@@H](CCCNC(=N)N)C(=O)N[C@@H](CC(C)C)C(=O)N[C@@H](CS)C(=O)N[C@@H](C)C(=O)N[C@H](C(=O)N[C@@H](Cc1ccccc1)C(=O)N[C@H](C(=O)N[C@@H](CCCNC(=N)N)C(=O)N[C@@H](CC(=O)O)C(=O)NCC(=O)O)C(C)C)C(C)C)[C@@H](C)O", "note": "[Peptide S3P9a]", "values": [{"measurement": "Percent Changes in Binding Activity PT/fetuin", "setting": "[1]", "value": "+328 ± 10%"}, {"measurement": "Percent Changes in Binding Activity MAL/fetuin", "setting": "[2]", "value": "+18 ± 6%"}, {"measurement": "IC50", "setting": "[3]", "value": "2740 ± 860", "unit": "µM"}, {"measurement": "Percent Changes in Binding Activity SNA/fetuin", "setting": "[3]; peptide mg/mL: S2PL 1.2, ACS2P1 1.0, S2(14-2.3) 1.0, S2P2 1.1, S2P3 0.51, S2P4 0.98, S2P6 0.85, S3P1 3.2, S3P2 3.1, S3P3 4.5, S3P4 3.3, S3P5 0.48, S3P9a 1.7, SPYGRC 4.4, S2(WGA) 1.0, WGA (62-73) 1.0, + enhancement, − inhibition", "value": "−41 ± 3", "unit": "%"}, {"measurement": "Maximal Inhibitory Concentration for Greater than 50% Inhibition", "setting": "[4]", "value": "NI (Not inhibitory at a peptide concentration of 300 ng/ml.)"}, {"measurement": "effect on DTH inflammatory response (footpad swelling 24 hours after challenge), in words", "setting": "[5]", "value": "effective in reducing a DTH response in mice"}, {"measurement": "DTH response (footpad swelling) on later re-challenge with OVA antigen, in words", "setting": "[6]", "value": "reduced immune response"}]}
